What was measured:
[1] = tested on: spontaneously hypertensive rats; experiment: Hypotensive activity in spontaneously hypertensive rats (Experiment 1, tail artery plethysmography); type: in vivo; conditions: maximum reduction after administration versus pressure before administration; oral, 3 mg/100 g body weight, suspended in 0.3% (W/V) CMC; SHR 15 weeks old, five rats per group
Protocol: This experiment was conducted according to the procedure described in "Spontaneously Hypertensive Rats (SHR) guidelines for Breeding, Care and Use" (published by SHR Conference) (1976) p.ll.
Five spontaneously hypertensive rats (15 weeks old, 180 mmHg or more in blood pressure) were used as one group. A test compound was suspended in 0.3% (W/V) CMC aqueous solution in a concentration of 3 mg/ml, and orally administered to the rats in a dose of 3 mg/100 g body weight. Changes in blood pressure were measured according to the method of tail artery plethysmography (see the literature cited above). The maximum reduction (mmHg) in blood pressure after the administration on the basis of the pressure before the administration is shown in Table 6.

[2] = Acute oral toxicity in mice (Experiment 2, deaths counted after 7 days); conditions: mouse, in vivo, in aqueous physiological sodium chloride, doses 300 mg/kg or further 200, 100 or 1000 mg/kg, observation for 7 days, three or four mice per group, read-out: Dose of half being died
Protocol: Three or four male dd-strain mice (weight 18-20g) were used as one group.
Each of the compounds was added to aqueous physiological sodium chloride, and the mixture was orally administered to the mice in a dose of 300 mg/kg or further 200, 100 or 1000 mg/kg. After the observation for 7 days, the number of deaths were counted.

| Structure (SMILES) | Reduction in blood pressure (mmHg) [1] | LD50 at 168 h [2] |
| --- | --- | --- |
| COc1ccc([C@H](O)[C@H](C)N2CCC3(CC2)OC(=O)Nc2ccccc23)cc1OC (relative stereo) [Compound 25, threo-l'-[2-(3,4-dimethoxyphenyl)-2-hydroxy-1-methylethyl]-(2-oxo-3,4-dihydro-2H-1,3-benzoxazine-4-spiro-4'-piperidine)] | 90 mmHg | – |
| COc1ccc([C@@H](O)[C@H](C)N2CCC3(CC2)OC(=O)Nc2ccccc23)cc1OC (relative stereo) [Compound 26, erythro-l'-[2-(3,4-dimethoxyphenyl)-2-hydroxy-1-methylethyl]-(2-oxo-3,4-dihydro-2H-1,3-benzo-xazine-4-spiro-4'-piperidine)] | 66 mmHg | – |
| COc1cc([C@H](O)[C@H](C)N2CCC3(CC2)OC(=O)Nc2ccccc23)cc(OC)c1OC (relative stereo) [Compound 28] | 70 mmHg | – |
| COc1cc(OC)c([C@@H](O)[C@H](C)N2CCC3(CC2)OC(=O)Nc2ccccc23)cc1OC (relative stereo) [Compound 31, erythro-l'-[2-(3,4,6-trimethoxyphenyl)-2-hydroxy-1-methylethyl]-(2-oxo-3,4-dihydro-2H-1,3-benzo-xazine-4-spiro-4'-piperidine)] | 75 mmHg | – |
| O=C1Nc2ccccc2C2(CCN(CC(O)c3ccccc3)CC2)O1 (stereo not shown) [Compound 2, l'-(2-phenyl-2-hydroxyethyl)-(2-oxo-3,4-dihydro-2H-1,3-benzoxazine-4-spiro-4'-piperidine)] | 46.3 mmHg | > 300 mg/kg |
| COc1ccc(C(O)CN2CCC3(CC2)OC(=O)Nc2ccccc23)cc1OC (stereo not shown) [Compound 4, l'-[2-(3,4-dimethoxyphenyl)-2-hydroxyethyl]-(2-oxo-3,4-dihydro-2H-1,3-benzoxazine-4-spiro-4'-piperidine)] | 95.0 mmHg | > 1000 mg/kg |
| O=C1Nc2ccc(Cl)cc2C2(CCN(CC(O)c3ccccc3)CC2)O1 (stereo not shown) [Compound 6, l'-(2-phenyl-2-hydroxyethyl)-(6-chloro-2-oxo-3,4-dihydro-2H-1,3-benzoxazine-4-spiro-4'-piperidine)] | 66.3 mmHg | – |
| O=C1Nc2ccc(Cl)cc2C2(CCN(CC(O)c3ccc(Cl)cc3)CC2)O1 (stereo not shown) [Compound 8, l'-[2-(4-chlorophenyl)-2-hydroxyethyl]-(6-chloro-2-oxo-3,4-dihydro-2H-1,3-benzoxazine-4-spiro-4'-piperidine)] | 67.5 mmHg | > 300 mg/kg |
| O=C1Nc2ccccc2C2(CCN(CC(O)c3ccc(Cl)cc3)CC2)O1 (stereo not shown) [Compound 9] | 43.7 mmHg | > 300 mg/kg |
| CN1C(=O)Nc2ccccc2C12CCN(CC(O)c1ccc(Cl)cc1)CC2 (stereo not shown) [Compound 10] | 20.0 mmHg | – |
| CN1C(=O)Nc2ccccc2C12CCN(CC(O)c1ccccc1)CC2 (stereo not shown) [Compound 11, l'-(2-phenyl-2-hydroxyethyl)-(3-methyl-3,4-dihydro-2(lH)-quinazolinone-4-spiro-4'-piperidine)] | 47.5 mmHg | 200 mg/kg |
| COc1ccc(C(O)CN2CCC3(CC2)c2ccccc2NC(=O)N3C)cc1OC (stereo not shown) [Compound 12, l'-[2-(3,4-dimethoxyphenyl)-2-hydroxyethyl]-[3-methyl-3,4-dihydro-2(1H)-quinazolinone-4-spiro-4'-piperidine]] | 35.0 mmHg | 100 to 300 mg/kg |
| COc1cc(C(O)CN2CCC3(CC2)OC(=O)Nc2ccccc23)cc(OC)c1OC (stereo not shown) [Compound 32, l'-[2-(3,4,5-trimethoxyphenyl)-2-hydroxyethyl]-(2-oxo-3,4-dihydro-2H-1,3-benzoxazine-4-spiro-4'-piperidine)] | 79 mmHg | – |

Source: patent EP0070171A1, “Novel piperidine derivatives, processes for preparation thereof and pharmaceutical compositions containing same” (KYOWA HAKKO KOGYO CO., LTD, priority 1981, dated 1983)
